Experimental findings from patent publication US20040197335A1, “Non-myeloablative tolerogenic treatment with tyrphostins” (priority 2003, published 2004) are described below.

In general, % Inhibition refers to the percentage by which the read-out fell short of the control. Low readings indicate little suppression, high ones strong suppression. For orientation: inhibition means the drop in the measured response relative to a control, in per cent. Low readings indicate a weak effect, high ones a strong effect.

pIC50: −log10 of the molar value. Where two headings read alike, the source gives them in different places.

Common to all, as to type: cell-based
Assay [1] concerns Human PBMC incubated with MHC-mismatched PBMC. Nature of the assay: One-way mixed lymphocyte reaction (primary MLR), [3H]TdR uptake. The conditions noted are these: for pIC50: Table 5, some values marked (mean), read-out: IC 50% (inhibition of Primary MLR); for % response (alloreactive relative response, cpm with/without tyrphostin x100): FIG. 2, response without tyrphostin = 100%; for cpm: no tyrphostin 10,734 cpm; for cpm ± SD: no tyrphostin 30,520 cpm. How it is done: Cell sources: Human peripheral blood mononuclear cells (PBMC) were obtained from healthy human donors after separation on Ficoll-Paque density gradient essentially as described in Boyum, A. Scand. J Lab. Invest. […] Reagents:
One-way mixed lymphocyte reaction (MLR assay): Responding cells derived from donor A (5×10^4) were cultured in round-bottom microwell plates with an equal number (5×10^4) of irradiated (6000 cGy) donor B PBMC with and without tyrphostins. […] During the last 18 hours of incubation, cultures were pulsed with 2 μCi of [^3H] TdR.
(§1) Harvesting and radioactivity determination: Harvesting was carried out by a multiple-sample cell harvester and radioactivity, expressed in counts per minutes (cpm), was determined in a liquid scintillation β-counter.
Human PBMC were incubated either with autologous or with MHC-mismatched PBMC in a one-way MLR assay, with and without various concentrations of tyrphostins, as is described hereinabove.
In this case, the alloreactive response without the tyrphostins was considered as 100% response. Percentage of response was calculated according to the following formula: b/a×100; where a=cpm in cultures without tyrphostin, b=cpm in cultures with tyrphostin.

Assay [2] concerns donor A anti-donor B-primed human PBMC vs donor B PBMC. Nature of the assay: Secondary MLR of alloantigen-primed PBMC against priming donor B. The conditions noted are these: then removed, priming without tyrphostin = 100%. Here is the method: (§2) PBMC from donor A (10×10^6) were stimulated with equal number of irradiated (6000 cGy) donor B PBMC, with and without tyrphostins, in a total volume of 20 ml culture medium supplemented with 10% heat inactivated human AB^+ serum (mixed lymphocyte culture, MLC). Cultures were placed vertically in 25 cm tissue culture flasks in a 5% CO2, humidified incubator at 37° C. After 10 days, cells were washed twice to remove the tyrphostin, and tested for their ability to respond in the MLR and the primary mitogenic response assay described hereinabove.
(§3) The alloreactivity of donor A anti-donor B-primed cells (5×10^4) was tested in a 6-day one-way primary MLR assay against third party unrelated donor C PBMC (10^5), or against donor A cells (background control). Cultures were placed in round-bottom microwell plates. On day 5, cultures were pulsed with 2 μCi [^3H] TdR/well for 16-18 hours and then harvested. […] After 48 hours at 37° C. in a 5% CO2 humidified incubator, cultures were pulsed with 2 μCi [^3H] TdR for another 16-18 hours and then harvested.
as §1
(§4) […] After 10 days the tyrphostin was removed and the primed cells were tested for their ability to respond in a secondary MLR assay against the priming (donor B) alloantigens, in a primary MLR assay against third party unrelated alloantigens (donor C), and to non-specific stimulation in a mitogenic assay. […] Percentage of response was calculated according to the formula described above.

Assay [3] deals with donor A anti-donor B-primed human PBMC vs third party unrelated donor C PBMC. Nature of the assay: Primary MLR of alloantigen-primed PBMC against third party unrelated donor C. The note with it: then removed, priming without tyrphostin = 100%. How it is done: as §2, §3, §1, §4
The test system of assay [4] is donor A anti-donor B-primed human PBMC stimulated with PHA. Nature of the assay: Mitogenic response (PHA) of alloantigen-primed PBMC. The note with it: then removed, priming without tyrphostin = 100%. Here is the method:
as §2
Cultures were incubated for 48 hours in a total volume of 0.2 ml culture medium supplemented with 10% heat-inactivated human AB^+ serum at 37° C. in a 5% CO2 humidified incubator, pulsed for 16-18 hours with 1 μCi [^3H]TdR/well, and then harvested.
as §1, §4

The subject of assay [5] is Human PBMC stimulated with phytohemagglutinin (PHA). Nature of the assay: Primary mitogenic response assay (PHA), [3H]TdR uptake. The note with it: Table 6, tyrphostin 20 μM; for inhibition at 20 µM: Homo sapiens, PBMC, 96 h; for cpm ± SD: PHA without tyrphostin 14,959±644, medium 155±37. How it is done: Mitogens: Phytohemagglutinin (PHA) and concanavalin A (Con-A) were dissolved in saline and diluted to their final concentration in culture medium. Anti-CD3 (OK3 stock solution 1 μg/ml) was diluted to 0.2 μg/ml final concentration in culture medium.
Responding PBMC cells (10^5) derived from donor A were cultured in flat-bottom microwell plates with and without tyrphostins, and with phytohemagglutinin (PHA) 1 μg/ml, or concanavalin A 18 μg/ml. […] During the last 18 hours of incubation, cultures were pulsed with 1 μCi of [^3H] TdR.
as §1

Setting [6] is: primed 10 days with tyrphostin 20 μM.
[7] abbreviates: primed 10 days with tyrphostin 40 μM.
[8] abbreviates: Table 2, primary MLR, tyrphostin 5 μM.
[9] abbreviates: Table 2, primary MLR, tyrphostin 10 μM.
Setting [10] is: primed 10 days with tyrphostin 5 μM.
Where [11] appears, read: primed 10 days with tyrphostin 10 μM.
[12] abbreviates: Homo sapiens, PBMC, 144 h, Table 2, primary MLR, tyrphostin 50 μM.
The mark [13] stands for this setting: Table 2, primary MLR, tyrphostin 50 μM.
[14] abbreviates: Homo sapiens, PBMC, 144 h, Table 3, primary MLR, tyrphostin 25 μM.
Where [15] appears, read: Homo sapiens, PBMC, 144 h, Table 3, primary MLR, tyrphostin 50 μM.
Where [16] appears, read: Table 3, primary MLR, tyrphostin 25 μM.
The mark [17] stands for this setting: Table 3, primary MLR, tyrphostin 50 μM.

On to “3-(3,5-dimethyl-H-pyrrol-2-yl-methylene)-2-oxo-2,3-dihydro-1H-indole-5-sulfonic acid dimethylamide [Tyr 16]”, for which, in assay [1] (Table 4, primary MLR, tyrphostin 1 μM), the “% Inhibition” value came out at 62%. For the same molecule, the pIC50 in assay [1] was 5.40.

As to `N#CC(=Cc1cc(O)c(O)c(CSCCCc2ccccc2)c1)C(=O)NCc1ccccc1` [Tyr 2, N-benzyl-2-cyano-3-[3,4-dihydroxy-5-(3-phenylpropylsulfanylmethyl)-phenyl]-acrylamide], the “% response (alloreactive relative response, cpm with/without tyrphostin x100)” value in assay [1] (primary MLR, tyrphostin 10 μM) amounted to 73%; in assay [1] (primary MLR, tyrphostin 50 μM) it was 0%. In assay [1] (Homo sapiens, PBMC, 144 h, Table 2, primary MLR, tyrphostin 20 μM), testing at 20 µM gave an inhibition of 73%. Moreover, at 40 µM the inhibition in assay [1] (Homo sapiens, PBMC, 144 h, Table 2, primary MLR, tyrphostin 40 μM) was 95%. In assay [1] (Homo sapiens, PBMC), the pIC50 is 4.66. The cpm in assay [1] (Table 2, primary MLR, tyrphostin 20 μM) is 2,863 cpm; in assay [1] (Table 2, primary MLR, tyrphostin 40 μM) it was 490 cpm. Besides, the “% Response to primary stimulator” value in assay [2] (setting [6]) is listed as 280%; in assay [2] (setting [7]), 15%. Further, the “% Response to unrelated stimulator” value in assay [3] (setting [6]) stood at 257%; in assay [3] (setting [7]), 138%. The “% Response to PHA” value came to 900% in assay [4] (setting [6]) and 254% in assay [4] (setting [7]).

Regarding `Cc1ccc(-c2nn(C(C)(C)C)c3ncnc(N)c23)cc1` [Tyr 3, 4-amino-1-t-butyl-3-(p-toluyl)pyrazolo[3,4-d]pyrimidine], the cpm in assay [1] (setting [8]) is on record as 3,130 cpm; in assay [1] (setting [9]), 145 cpm. Moreover, the inhibition at 20 µM in assay [5] (mitogenic response) was 98%. The “cpm ± SD” value in assay [5] was determined as 300 ± 24 cpm. The “% Response to primary stimulator” value in assay [2] (setting [10]) is 65%; in assay [2] (setting [11]), 24 ± 10%; in assay [2] (setting [6]), 24 ± 18%. Besides, the “% Response to unrelated stimulator” value in assay [3] (setting [10]) is 55%; in assay [3] (setting [11]) it was 206 ± 99%; in assay [3] (setting [6]), 57 ± 44^ %. In addition, the “% Response to PHA” value is 26% in assay [4] (setting [10]), 110 ± 35% in assay [4] (setting [11]) and 30 ± 28^ % in assay [4] (setting [6]).

`CC(C)(C)n1nc(-c2ccc(Cl)cc2)c2c(N)ncnc21` [Tyr 4, 4-amino-1-t-butyl-3-(p-chlorophenyl)pyrazolo[3,4-d]pyrimidine]: the cpm is on record as 3,316 cpm in assay [1] (setting [8]) and 580 cpm in assay [1] (setting [9]). This molecule also showed an inhibition at 20 µM in assay [5] (mitogenic response) of 98%. The “cpm ± SD” value in assay [5] amounted to 230 ± 115 cpm. For the same molecule, the “% Response to primary stimulator” value in assay [2] (setting [10]) came to 132%; in assay [2] (setting [11]) it was 13 ± 4.5%; in assay [2] (setting [6]), 6.5 ± 0.5%. Besides, the “% Response to unrelated stimulator” value in assay [3] (setting [10]) is given as 145%; in assay [3] (setting [11]), 288 ± 122^ %; in assay [3] (setting [6]), 204 ± 18%. In addition, the results for the “% Response to PHA” value in assay [4] (setting [10]), in assay [4] (setting [11]) and in assay [4] (setting [6]) were 29%, 120 ± 40% and 40 ± 32^ %, respectively.

As for `N#CC(=Cc1ccc(O)c(O)c1)C(=O)NCCCCc1ccccc1` [Tyr 5, 2-cyano-3-(3,4-dihydroxyphenyl)-N-(4-phenylbutyl)-acrylamide], the “% response (alloreactive relative response, cpm with/without tyrphostin x100)” value in assay [1] (primary MLR, tyrphostin 10 μM) was determined as 32%; in assay [1] (primary MLR, tyrphostin 50 μM), 13%. In assay [1] (Homo sapiens, PBMC, 144 h, Table 2, primary MLR, tyrphostin 10 μM), this molecule had an inhibition at 10 µM of 40%. The inhibition at 50 µM in assay [1] (setting [12]) is 70%. For the same molecule, in assay [1] (Homo sapiens, PBMC), the pIC50 is 4.47. For the same molecule, the cpm is 6,413 cpm in assay [1] (setting [9]) and 3,156 cpm in assay [1] (setting [13]).

For the molecule `N#CC(C#N)=Cc1ccc([N+](=O)[O-])c(O)c1` [Tyr 7, 2-(3-hydroxy-4-nitro-benzylidene)malononitrile], the inhibition at 50 µM in assay [1] (setting [12]) stood at 50%. The molecule further yielded an inhibition at 100 µM in assay [1] (Homo sapiens, PBMC, 144 h, Table 2, primary MLR, tyrphostin 100 μM) of 95%. In assay [1] (Homo sapiens, PBMC), the pIC50 is 4.44. The cpm in assay [1] (setting [13]) was 5,348 cpm; in assay [1] (Table 2, primary MLR, tyrphostin 100 μM) it was 512 cpm.

Take `COc1cc2ncnc(Nc3ccc(C(N)=O)cc3)c2cc1OC` [Tyr 8, 4-(6,7-dimethoxyquinazoline-4-yl-amino)-benzamide]: 25 µM produced 49% inhibition in assay [1] (setting [14]). Moreover, the inhibition at 50 µM in assay [1] (setting [15]) was 63%. For the same molecule, the pIC50 in assay [1] (Homo sapiens, PBMC) was 4.37. The “cpm ± SD” value in assay [1] (setting [16]) is listed as 12,452 cpm; in assay [1] (setting [17]), 11,293 cpm.

Consider `COc1cc2ncnc(Nc3ccc(O)cc3)c2cc1OC` [Tyr 9, 4-(6,7-dimethoxyquinazoline-4-yl-amino)-phenol], for which the inhibition at 25 µM in assay [1] (setting [14]) came to 95%. This molecule had an inhibition at 50 µM in assay [1] (setting [15]) of 99%. For the same molecule, in assay [1] (Homo sapiens, PBMC), the pIC50 was 4.59. Also, the “cpm ± SD” value in assay [1] (setting [16]) is 1,367 cpm; in assay [1] (setting [17]), 371 cpm; in assay [5], 4,582 ± 617 cpm. For the same molecule, the inhibition at 20 µM in assay [5] (mitogenic response) worked out at 70%.

Regarding `CC(C)(C)n1nc(-c2cccs2)c2c(N)ncnc21` [Tyr 15, 4-amino-1-t-butyl-3-(2-thiophene)pyrazolo[3,4-d]pyrimidine], the pIC50 in assay [1] is 5.15.

With `COc1ccc(-c2nn(C(C)(C)C)c3ncnc(N)c23)cc1OC` [Tyr 19, 4-amino-1-t-butyl-3-(3,4-dimethoxyphenyl)-pyrazolo[3,4-d]pyrimidine], testing at 10 µM in assay [1] (Homo sapiens, PBMC, 144 h, Table 4, primary MLR, tyrphostin 10 μM) gave an inhibition of 63%. Further, the inhibition at 20 µM in assay [1] (Homo sapiens, PBMC, 144 h, Table 4, primary MLR, tyrphostin 20 μM) came out at 80%; in assay [5] (mitogenic response) it was 96%. Moreover, in assay [1] (Homo sapiens, PBMC), the pIC50 is 5.52. Further, the “cpm ± SD” value in assay [5] worked out at 553 ± 59 cpm.

As for `CC(C)(C)c1cc(C=C(C#N)C(N)=S)cc(C(C)(C)C)c1O` [Tyr 23, 2-cyano-3-(3,5-di-t-butyl-4-hydroxyphenyl)-thioacrylamide], in assay [5] (mitogenic response), 20 µM produced 68% inhibition. The “cpm ± SD” value in assay [5] is 4,831 ± 1026 cpm.

With `N#CC(=Cc1c[nH]c2ccccc12)c1[nH]nc(N)c1C#N` [Tyr 24, 3-amino-5-[1-cyano-2-(1H-indol-3-yl)vinyl]-1H-pyrazole-4-carbonitrile], in assay [5] (mitogenic response), at 20 µM the inhibition was 96%. Also, in assay [5], the “cpm ± SD” value is on record as 533 ± 45 cpm.

In turn, `N#CC(=Cc1ccc(O)c(O)c1)C(=S)NCc1ccccc1` [Tyr 26, N-benzyl-2-cyano-3-(3,4-dihydroxyphenyl)-thioacrylamide] showed an inhibition at 20 µM in assay [5] (mitogenic response) of 70%. Also, in assay [5], the “cpm ± SD” value is reported as 4,295 ± 221 cpm.

On to `N#CC(=Cc1cc(O)c(O)c(I)c1)C(=O)NCCCc1ccccc1` [Tyr 32, 2-cyano-3-(3,4-dihydroxy-5-iodophenyl)-N-(4-phenylpropyl)-acrylamide], for which, in assay [5] (mitogenic response), the “% Inhibition” value worked out at 58%. In assay [5], the “cpm ± SD” value is 6,303 ± 1205 cpm.
